Assay results reported in ChEMBL document CHEMBL5360669, “Novel Pyrazoloquinoline Compounds as KRAS Inhibitors for Treating Cancer” (ACS Med Chem Lett, 2023).

Experiments:
[1] = biological target: T1, GTPase KRas (Homo sapiens, UniProt P01116, G12C); experiment: Inhibition of KRAS G12C mutant (unknown origin) by measuring exchange of bodipy-GDP for GppNHp incubated for 2 hrs
[2] = Inhibition of KRAS G12C WB mutant (unknown origin) incubated for 2 hrs; design: species or system Homo sapiens
[3] = biological target: T1, GTPase KRas; experiment: Inhibition of KRAS G12C mutant (unknown origin) incubated for 2 hrs

Measured: IC50

T1 sequence (P01116 whole entry G12C): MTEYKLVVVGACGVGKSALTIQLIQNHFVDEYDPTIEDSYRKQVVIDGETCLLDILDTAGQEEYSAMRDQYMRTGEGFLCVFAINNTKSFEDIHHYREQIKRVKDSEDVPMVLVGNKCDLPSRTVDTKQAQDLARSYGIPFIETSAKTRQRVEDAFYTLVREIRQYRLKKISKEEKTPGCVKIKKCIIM

C=C(F)C(=O)N1CC[C@H](n2ncc3c(O[C@@H](C)[C@@H]4CCCN4C)nc4c(F)c(-c5nccc6cccc(C#N)c56)c(Cl)cc4c32)C[C@H]1CC#N
≤ 100 nM: all assays above

COC/C=C/C(=O)N1CC[C@H](n2ncc3c(O[C@@H](C)[C@@H]4CCCN4C)nc4c(F)c(-c5nccc6cccc(C#N)c56)c(Cl)cc4c32)C[C@H]1CC#N
≤ 100 nM: all assays above

CC#CC(=O)N1CC[C@H](n2ncc3c(O[C@@H](C)[C@@H]4CCCN4C)nc4c(F)c(-c5nccc6cccc(C#N)c56)c(Cl)cc4c32)C[C@H]1CC#N
≤ 100 nM: all assays above

COC/C=C/C(=O)N1CC[C@H](n2ncc3c(O[C@@H](C)[C@@H]4CCCN4C)nc4c(F)c(-c5cccc6cccc(C#N)c56)c(Cl)cc4c32)C[C@H]1CC#N
≤ 100 nM: all assays above

CC#CC(=O)N1CC[C@H](n2ncc3c(O[C@@H](C)[C@@H]4CCCN4C)nc4c(F)c(-c5cccc6cccc(C#N)c56)c(C)cc4c32)C[C@H]1CC#N
≤ 100 nM: all assays above

C=C(F)C(=O)N1CC[C@H](n2ncc3c(N4CC(N(C)CC)C4)nc4c(F)c(-c5c(C)c(C)cc6[nH]ncc56)c(Cl)cc4c32)C[C@H]1CC#N
≤ 100 nM: all assays above
